Experimental data: patent publication US9315499B2, “Cytomegalovirus inhibitor compounds” (Boehringer Ingelheim International GmbH, priority 2012, dated 2016)

Target: HCMV polymerase (UL54) (Human cytomegalovirus (strain AD169) (HHV-5) (Human herpesvirus 5), UniProt P08546)
Assay: biochemical
Settings: LANCE TR-FRET, purified recombinant GST-UL54; read-out: Example C (IC50 nM)
Experimental: HCMV Polymerase LANCE TR-FRET Assay
This non-radiometric assay determines the enzymatic activity of purified recombinant HCMV polymerase (UL54) using a Digoxigenin-labeled oligonucleotide priming a heteropolymeric template. The enzymatic activity is determined by incorporating Biotin-dUTP in the nascent complementary strand. The signal is generated by Fluorescence Resonance Energy Transfer from the donor (Anti-Digoxigenin-Europium Chelate binding with the primer) to the acceptor Streptavidin-AlloPhycoCyanin (SA-APC) binding to the biotin of the labeled nucleotides incorporated in proximity.
Serial dilutions of the DMSO stock compound solution are performed using DMSO in columns 2-11 and 14-23. DMSO alone is present in columns 1, 12, 13 and 24. Three μL of the DMSO serial dilutions is transferred and diluted using 21 μL of compound dilution buffer (10 mM Hepes pH 7.5, 25 mM KCl, 5 mM MgCl2, 1 mM TCEP) to obtain 12.5% DMSO. 4 μL per well of the 12.5% DMSO serial dilution compound solution is added to the assay plate. The plate is centrifuged at 200×g for 30 sec. […]
To perform the assay, 3 μL of the enzyme solution is added to columns 2-12 and 14-24. […] The signal is read on the Envision plate reader (Perkin-Elmer) or equivalent.

SMILES | IC50 [nM]
Nc1c(Br)cnc2c1cc(C(=O)NCc1ccc(Cl)cc1)c(=O)n2CC(=O)N1CCC(CO)C1 (centres unmarked) [Compound 6022] | 83
O=C(NCc1ccc(Cl)cc1)c1cc2cccnc2n(CC(=O)N2CCC(C(=O)O)C2)c1=O (centres unmarked) [Compound 1029] | 6200
